Reference: patent US11298363B2, “Triazolobenzazepines as vasopressin V1a receptor antagonists” (RICHTER GEDEON NYRT., priority 2017, dated 2022)
Marks after values point to notes of the source that are not given here.

Experiments:
[1] = molecular target: human vasopressin V2 receptor (Homo sapiens, UniProt P30518); experiment: Human vasopressin V2 receptor binding assay on 1321N1 cell line; details: 1321N1 cell line; read-out: Ki on hV2 1321N1 cell line
Method: Human Vasopressin V2 Receptor Binding Assay Cells and Radioligand
To determine the final affinity value, the results of at least two independent experiments were taken into account.
Non-specific binding values were determined in the presence of an unlabeled 1.2×10^−6 M (Arg^8)-vasopressin. Samples were incubated in a total volume of 0.55 ml for 90 minutes at 27° C. Membrane-bound and free ligands were separated by filtration through a 0.5% polyethyleneimine-impregnated UniFilter® GF/B™. After drying the filter plates, 40 μl Microscint-20 (Packard) scintillation cocktail was added to the samples. Finally, radioactivity was measured using MicroBeta^2 Microplate Counter (Perkin Elmer).
The radioligand displacement ability of a substance is determined in at least two independent experiments. Specific radioligand binding can be defined as the difference between total and non-specific binding in the presence of a saturation amount of the unlabeled ligand or different concentrations of the substance to be tested. The results are given as a percentage of inhibition of the specific binding achieved in the presence of the substance to be tested.
During fitting, the asymptotes are not fixed. The Ki values (inhibition constant) are given with Cheng-Prusoff equation Ki=IC50/[1+(L/KD)] wherein [L] is the radioligand concentration used in the experiment and [KD] is the affinity of the radioactively labelled ligand for the given receptor. The KD is determined beforehand using the Scatchard curve.

[2] = molecular target: T1, human vasopressin V1a receptor (Homo sapiens, UniProt P37288); experiment: Functional assay on human vasopressin V1a receptor expressing cell line (intracellular Ca2+ fluorescence); type: cell-based; details: 1321N1 cells, (Arg8)-vasopressin at EC80; read-out: IC50 (nM) on hV1a cell line
[3] = molecular target: T1, human vasopressin V1a receptor; experiment: Human vasopressin V1a receptor binding assay; details: 1321N1 cell membranes, [3H]vasopressin; read-out: Ki (nM) on hV1a cell line
How it was run: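 Ki values come from IC50 via Cheng-Prusoff (KD from prior Scatchard), averaged over at least two independent runs. Human V1a membranes were incubated with radioligand 60 minutes at 27° C., bound ligand collected by filtration; (Arg^8)-vasopressin at 1.2×10^−6 M defined non-specific binding.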

[4] = molecular target: mouse V1a receptor (Mus musculus, UniProt Q62463); experiment: Functional V1a in vivo test: inhibition of oxytocin-induced scratching behaviour; details: mice
How it was run: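 Male NMRI mice received test substance or vehicle, then oxytocin 0.3 mg/kg s.c. Scratching was recorded by LABORAS after 1 h cage habituation. Inhibition was expressed as % between the saline (0%) and vehicle-plus-oxytocin (100%) group means, analysed by ANOVA with Tukey test.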

Sequence of human vasopressin V2 receptor (P30518 whole entry): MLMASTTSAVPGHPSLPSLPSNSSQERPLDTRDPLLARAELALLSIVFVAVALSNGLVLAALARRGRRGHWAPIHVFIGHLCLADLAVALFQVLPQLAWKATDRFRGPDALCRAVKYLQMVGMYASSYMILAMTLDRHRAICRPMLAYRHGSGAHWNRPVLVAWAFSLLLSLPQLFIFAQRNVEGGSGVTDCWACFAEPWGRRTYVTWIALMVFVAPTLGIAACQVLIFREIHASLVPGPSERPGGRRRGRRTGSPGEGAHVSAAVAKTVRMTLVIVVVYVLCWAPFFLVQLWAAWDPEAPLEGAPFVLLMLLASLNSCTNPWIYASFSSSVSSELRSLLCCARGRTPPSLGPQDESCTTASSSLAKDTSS
T1 sequence (P37288 whole entry): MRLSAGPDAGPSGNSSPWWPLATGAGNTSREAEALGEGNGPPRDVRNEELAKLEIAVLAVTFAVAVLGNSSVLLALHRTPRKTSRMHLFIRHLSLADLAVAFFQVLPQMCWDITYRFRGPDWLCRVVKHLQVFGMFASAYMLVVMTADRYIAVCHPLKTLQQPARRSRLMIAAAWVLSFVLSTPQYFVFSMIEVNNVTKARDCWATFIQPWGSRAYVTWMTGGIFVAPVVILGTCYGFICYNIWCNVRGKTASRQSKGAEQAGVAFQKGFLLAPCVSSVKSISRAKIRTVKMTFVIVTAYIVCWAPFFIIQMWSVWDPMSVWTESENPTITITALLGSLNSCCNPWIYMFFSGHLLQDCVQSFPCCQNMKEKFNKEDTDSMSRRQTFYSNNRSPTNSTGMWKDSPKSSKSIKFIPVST
Sequence of mouse V1a receptor (Q62463 whole entry): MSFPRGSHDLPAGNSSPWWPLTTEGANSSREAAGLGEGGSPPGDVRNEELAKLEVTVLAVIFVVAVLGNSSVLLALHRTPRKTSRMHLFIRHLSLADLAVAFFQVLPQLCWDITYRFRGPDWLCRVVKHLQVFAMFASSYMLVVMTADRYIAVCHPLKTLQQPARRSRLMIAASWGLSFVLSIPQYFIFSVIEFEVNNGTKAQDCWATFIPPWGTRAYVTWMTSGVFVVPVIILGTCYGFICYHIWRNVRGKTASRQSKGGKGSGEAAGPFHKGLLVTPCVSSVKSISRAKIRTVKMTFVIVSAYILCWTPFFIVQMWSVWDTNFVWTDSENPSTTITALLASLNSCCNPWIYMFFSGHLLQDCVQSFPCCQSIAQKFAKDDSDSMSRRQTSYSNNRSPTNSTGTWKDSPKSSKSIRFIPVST

## N[C@@H]1Cc2cc(Cl)ccc2-n2c(nnc2[C@H]2CC[C@H](Oc3ccccn3)CC2)C1 [Example 8, (5R)-8-chloro-1-[trans-4-(pyridin-2-yloxy)cyclohexyl]-5,6-dihydro-4H-[1,2,4]triazolo[4,3-a][1]benzazepine-5-amine]
[1]
  Ki: 3050 nM
[2]
  IC50: 6.8 nM
[3]
  Ki: 1.3 nM
[4]; 10 mg/kg p.o. pretreatment
  inhibition (%) of oxytocin-induced scratching behaviour response: 64%

## CC(=O)NC1Cc2cc(Cl)ccc2-n2c(nnc2[C@H]2CC[C@H](Oc3ccccn3)CC2)C1 (stereo partly drawn) [Example 9, N-{8-chloro-1-[trans-4-(pyridin-2-yloxy)cyclohexyl]-5,6-dihydro-4H-[1,2,4]triazolo[4,3-a][1]benzazepin-5-yl}acetamide]
[1]
  Ki: 1190 nM
[2]
  IC50: 3 nM
[3]
  Ki: 0.8 nM
[4]; after i.p. treatment (table title: 10 mg/kg)
  inhibition (%) of oxytocin-induced scratching behaviour response: 106* %

## O=C1Cc2cc(Cl)ccc2-n2c(nnc2[C@H]2CC[C@H](Oc3ccccn3)CC2)C1 [Example 54, 8-chloro-1-[trans-4-(pyrin-2-yloxy)cyclohexyl]-4H-[1,2,4]triazolo[4,3-a][1]benzazepin-5(6H)-one]
[1]
  Ki: 662 nM
[2]
  IC50: 1.2 nM
[3]
  Ki: 0.6 nM
[4]; 10 mg/kg p.o. pretreatment
  inhibition (%) of oxytocin-induced scratching behaviour response: 70%

## OC1Cc2cc(Cl)ccc2-n2c(nnc2[C@H]2CC[C@H](Oc3ccccn3)CC2)C1 (stereo partly drawn) [Example 55, 8-chloro-1-[trans-4-(pyridin-2-yloxy)cyclohexyl]-5,6-dihydro-4H-[1,2,4]triazolo[4,3-a][1]benzazepin-5-ol]
[1]
  Ki: 469 nM
[2]
  IC50: 1.1 nM
[3]
  Ki: 0.3 nM
[4]; 10 mg/kg p.o. pretreatment
  inhibition (%) of oxytocin-induced scratching behaviour response: 91%

## O[C@@H]1Cc2cc(Cl)ccc2-n2c(nnc2[C@H]2CC[C@H](Oc3ccccn3)CC2)C1 [Example 57, (5R)-8-chloro-1-[trans-4-(pyridin-2-yloxy)cyclohexyl]-5,6-dihydro-4H-[1,2,4]triazolo[4,3-a][1]benzazepin-5-ol]
[1]
  Ki: 446 nM
[2]
  IC50: 1.8 nM
[3]
  Ki: 0.3 nM
[4]; 10 mg/kg p.o. pretreatment
  inhibition (%) of oxytocin-induced scratching behaviour response: 84%

## Brc1ccc2c(c1)CC1(Cc3nnc([C@H]4CC[C@H](Oc5ccccn5)CC4)n3-2)OCCO1 [Example 62, 8′-bromo-1′-[trans-4-(pyridin-2-yloxy)cyclohexyl]-4′H,6′H-spiro[1,3-dioxolane-2,5′ [1,2,4]triazolo[4,3-a][1]benzazepine]]
[1]
  Ki: 53 nM
[2]
  IC50: 1.1 nM
[3]
  Ki: 0.2 nM
[4]; 10 mg/kg p.o. pretreatment
  inhibition (%) of oxytocin-induced scratching behaviour response: 99%

## c1ccc(O[C@H]2CC[C@H](c3nnc4n3-c3ccccc3CC3(C4)OCCO3)CC2)nc1 [Example 63, 1′-[trans-4-(pyridin-2-yloxy)cyclohexyl]-4′H,6′H-spiro[1,3-dioxolane-2,5′-[1,2,4]triazolo[4,3-a][1]benzazepine]]
[1]
  Ki: 575 nM
[2]
  IC50: 1.4 nM
[3]
  Ki: 0.3 nM
[4]; 10 mg/kg p.o. pretreatment
  inhibition (%) of oxytocin-induced scratching behaviour response: 49%
